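Grown in 96-well plates, cells were treated for 48 hours with each compound at five concentrations. Insufficient inhibition: endpoint recorded as highest concentration tested. The concentration for full growth arrest is given as TGI.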
Legend:
Assay in all cases: NCI tumour cell line growth inhibition, 48 h
DLD-1 colon = tested on: DLD-1 colon
DMS 114 small cell lung = tested on: DMS 114 small cell lung
KM20L2 colon = tested on: KM20L2 colon
LXFL 529 NSCLC = tested on: LXFL 529 NSCLC
RXF-631 renal = tested on: RXF-631 renal
XF 498 CNS = tested on: XF 498 CNS
DMS 273 small cell lung = tested on: DMS 273 small cell lung
M19-MEL melanoma = tested on: M19-MEL melanoma
SNB-78 CNS = tested on: SNB-78 CNS
HOP-18 NSCLC = tested on: HOP-18 NSCLC

**Q.** For COC1(C)CC2N(C(=O)c3ccccc3)N=C(c3ccccc3)CC2(C)O1 (stereo not drawn), which TGI (DLD-1 colon) is on record?
**A.** > 100 µM

**Q.** And the TGI (DMS 114 small cell lung)?
**A.** > 100 µM

**Q.** What about the TGI (KM20L2 colon) of the same compound?
**A.** > 100 µM

**Q.** And the TGI (LXFL 529 NSCLC)?
**A.** > 100 µM

**Q.** And the TGI (RXF-631 renal)?
**A.** > 100 µM

**Q.** And the TGI (XF 498 CNS)?
**A.** > 100 µM

**Q.** Which TGI (DLD-1 colon) does the source give for COC(=O)C(C#N)=C1c2ccccc2Oc2ccccc21 here?
**A.** > 100 µM

**Q.** What about the TGI (DMS 114 small cell lung) of the same compound?
**A.** > 100 µM

**Q.** And the TGI (DMS 273 small cell lung)?
**A.** > 100 µM

**Q.** And the TGI (KM20L2 colon)?
**A.** > 100 µM

**Q.** And the TGI (LXFL 529 NSCLC)?
**A.** 94.8 µM

**Q.** What about the TGI (M19-MEL melanoma) of the same compound?
**A.** > 100 µM

**Q.** What about the TGI (SNB-78 CNS) of the same compound?
**A.** > 100 µM

**Q.** What about the TGI (XF 498 CNS) of the same compound?
**A.** > 100 µM

**Q.** With O=C1NC(c2ccc(O)cc2)C2CCC1C2 (stereo not drawn) as the compound, how does the TGI (DLD-1 colon) read?
**A.** > 100 µM

**Q.** And the TGI (DMS 114 small cell lung)?
**A.** > 100 µM

**Q.** And the TGI (KM20L2 colon)?
**A.** > 100 µM

**Q.** What about the TGI (LXFL 529 NSCLC) of the same compound?
**A.** > 100 µM

**Q.** What about the TGI (M19-MEL melanoma) of the same compound?
**A.** > 100 µM

**Q.** And the TGI (SNB-78 CNS)?
**A.** > 100 µM

**Q.** What about the TGI (XF 498 CNS) of the same compound?
**A.** > 100 µM

**Q.** With Cc1ccccc1C(C#N)C(=O)C(=O)Nc1nc([N+](=O)[O-])cs1 (stereo not drawn) as the compound, how does the TGI (DLD-1 colon) read?
**A.** > 100 µM

**Q.** And the TGI (DMS 114 small cell lung)?
**A.** > 100 µM

**Q.** And the TGI (HOP-18 NSCLC)?
**A.** > 100 µM

**Q.** And the TGI (KM20L2 colon)?
**A.** > 100 µM

**Q.** And the TGI (LXFL 529 NSCLC)?
**A.** > 100 µM

**Q.** And the TGI (M19-MEL melanoma)?
**A.** > 100 µM

**Q.** And the TGI (RXF-631 renal)?
**A.** > 100 µM

**Q.** And the TGI (SNB-78 CNS)?
**A.** > 100 µM

**Q.** And the TGI (XF 498 CNS)?
**A.** > 100 µM

**Q.** Which results are given for O=C1CCCN(c2ccccc2)N1?
**A.** TGI (DMS 114 small cell lung): > 100 µM; TGI (DMS 273 small cell lung): > 100 µM; TGI (KM20L2 colon): > 100 µM; TGI (LXFL 529 NSCLC): > 100 µM; TGI (M19-MEL melanoma): > 100 µM; TGI (RXF-631 renal): > 100 µM

**Q.** Which results are given for COC(=O)c1cc(CC(C)C)c2c(c1)[nH]c1ccccc12?
**A.** TGI (DLD-1 colon): > 100 µM; TGI (DMS 114 small cell lung): > 100 µM; TGI (DMS 273 small cell lung): > 100 µM; TGI (KM20L2 colon): > 100 µM; TGI (LXFL 529 NSCLC): > 100 µM; TGI (M19-MEL melanoma): > 100 µM; TGI (XF 498 CNS): > 100 µM

**Q.** Which results are given for CCOC(=O)C1=C(C)N(c2ccccc2)C2=C(C(=O)N(c3ccccc3)C2c2ccccc2)C1c1ccccc1 (stereo not drawn)?
**A.** TGI (DLD-1 colon): > 100 µM; TGI (DMS 114 small cell lung): > 100 µM; TGI (DMS 273 small cell lung): > 100 µM; TGI (HOP-18 NSCLC): > 100 µM; TGI (KM20L2 colon): > 100 µM; TGI (LXFL 529 NSCLC): > 100 µM; TGI (M19-MEL melanoma): > 100 µM; TGI (RXF-631 renal): > 100 µM; TGI (SNB-78 CNS): > 100 µM; TGI (XF 498 CNS): > 100 µM

**Q.** Which results are given for O=C(/C=C/c1ccccc1)/C=C/c1ccccc1O?
**A.** TGI (DLD-1 colon): 36.9 µM; TGI (DMS 114 small cell lung): 35.3 µM; TGI (HOP-18 NSCLC): 1.76 µM; TGI (KM20L2 colon): 34.8 µM; TGI (LXFL 529 NSCLC): 33.7 µM; TGI (M19-MEL melanoma): 33.6 µM; TGI (SNB-78 CNS): > 100 µM; TGI (XF 498 CNS): > 100 µM

**Q.** Which TGI (DLD-1 colon) does the source give for C=CC(=O)c1ccc2c(c1)OCCOCCOCCOCCOCCO2 here?
**A.** 30.1 µM

**Q.** And the TGI (DMS 114 small cell lung)?
**A.** 41 µM

**Q.** What about the TGI (DMS 273 small cell lung) of the same compound?
**A.** 29.1 µM

**Q.** What about the TGI (HOP-18 NSCLC) of the same compound?
**A.** 30.2 µM

**Q.** And the TGI (KM20L2 colon)?
**A.** > 100 µM

**Q.** And the TGI (LXFL 529 NSCLC)?
**A.** 30.8 µM

**Q.** What about the TGI (M19-MEL melanoma) of the same compound?
**A.** 32.2 µM

**Q.** What about the TGI (SNB-78 CNS) of the same compound?
**A.** 35.2 µM

**Q.** And the TGI (XF 498 CNS)?
**A.** 28.7 µM

**Q.** C[N+](C)(C)CC(=O)N/N=c1\cc(C(=O)Nc2ccc(N=O)cc2C#N)oc2cc(O)ccc12 was tested. Which TGI (DLD-1 colon) did it give?
**A.** > 100 µM

**Q.** And the TGI (DMS 114 small cell lung)?
**A.** > 100 µM

**Q.** What about the TGI (DMS 273 small cell lung) of the same compound?
**A.** > 100 µM

**Q.** What about the TGI (HOP-18 NSCLC) of the same compound?
**A.** > 100 µM

**Q.** What about the TGI (KM20L2 colon) of the same compound?
**A.** > 100 µM

**Q.** What about the TGI (LXFL 529 NSCLC) of the same compound?
**A.** > 100 µM

**Q.** And the TGI (M19-MEL melanoma)?
**A.** > 100 µM

**Q.** What about the TGI (RXF-631 renal) of the same compound?
**A.** > 100 µM

**Q.** What about the TGI (SNB-78 CNS) of the same compound?
**A.** > 100 µM

**Q.** And the TGI (XF 498 CNS)?
**A.** > 100 µM

**Q.** Which TGI (DLD-1 colon) does the source give for O=C1O[C@@H](c2ccccc2)C[C@@H]1CN1CCOCC1 here?
**A.** > 100 µM

**Q.** What about the TGI (DMS 114 small cell lung) of the same compound?
**A.** > 100 µM

**Q.** And the TGI (KM20L2 colon)?
**A.** > 100 µM

**Q.** And the TGI (LXFL 529 NSCLC)?
**A.** > 100 µM

**Q.** What about the TGI (RXF-631 renal) of the same compound?
**A.** > 100 µM

**Q.** And the TGI (SNB-78 CNS)?
**A.** > 100 µM

**Q.** What about the TGI (XF 498 CNS) of the same compound?
**A.** > 100 µM

**Q.** Which results are given for O=C1CC2(C[C@@H]3CCCCCCCCC[C@@H](C3)C2)N1 (stereo partly drawn)?
**A.** TGI (DMS 114 small cell lung): 31.6 µM; TGI (DMS 273 small cell lung): 25.3 µM; TGI (HOP-18 NSCLC): 22.6 µM; TGI (KM20L2 colon): 31.4 µM; TGI (LXFL 529 NSCLC): 29.7 µM; TGI (M19-MEL melanoma): 28.8 µM; TGI (SNB-78 CNS): 49.6 µM; TGI (XF 498 CNS): 24.9 µM

**Q.** How did the TGI (DLD-1 colon) turn out when N#CCCN(c1ccc(C=Nc2cccc([N+](=O)[O-])c2)cc1)S(=O)(=O)c1ccccc1 was run?
**A.** > 100 µM

**Q.** What about the TGI (DMS 114 small cell lung) of the same compound?
**A.** > 100 µM

**Q.** What about the TGI (DMS 273 small cell lung) of the same compound?
**A.** > 100 µM

**Q.** What about the TGI (LXFL 529 NSCLC) of the same compound?
**A.** > 100 µM

**Q.** What about the TGI (RXF-631 renal) of the same compound?
**A.** > 100 µM

**Q.** What about the TGI (SNB-78 CNS) of the same compound?
**A.** > 100 µM

**Q.** And the TGI (XF 498 CNS)?
**A.** > 100 µM

**Q.** How did the TGI (DLD-1 colon) turn out when COC1O[C@H]2CCN(C(=O)OCc3ccccc3)[C@H]2[C@H]1OCc1ccccc1 (stereo partly drawn) was run?
**A.** > 100 µM

**Q.** And the TGI (DMS 114 small cell lung)?
**A.** > 86.2 µM

**Q.** And the TGI (DMS 273 small cell lung)?
**A.** > 100 µM

**Q.** And the TGI (HOP-18 NSCLC)?
**A.** > 100 µM

**Q.** What about the TGI (KM20L2 colon) of the same compound?
**A.** > 100 µM

**Q.** What about the TGI (LXFL 529 NSCLC) of the same compound?
**A.** > 100 µM

**Q.** And the TGI (M19-MEL melanoma)?
**A.** > 100 µM

**Q.** What about the TGI (SNB-78 CNS) of the same compound?
**A.** > 100 µM

**Q.** And the TGI (XF 498 CNS)?
**A.** > 100 µM

**Q.** Which results are given for COc1ccc(C2C(Cl)C(=O)N2NC(=O)c2ccc(NC(C)=O)cc2)cc1 (stereo not drawn)?
**A.** TGI (DLD-1 colon): > 100 µM; TGI (DMS 273 small cell lung): > 100 µM; TGI (KM20L2 colon): > 100 µM; TGI (LXFL 529 NSCLC): > 100 µM; TGI (M19-MEL melanoma): > 100 µM; TGI (SNB-78 CNS): > 100 µM; TGI (XF 498 CNS): > 100 µM

**Q.** Which TGI (DLD-1 colon) does the source give for Cc1c(Cl)cccc1NC(=O)C(=O)C1C(=O)CC(C)(C)CC1=O here?
**A.** > 100 µM

**Q.** And the TGI (DMS 114 small cell lung)?
**A.** > 100 µM

**Q.** What about the TGI (DMS 273 small cell lung) of the same compound?
**A.** > 100 µM

**Q.** And the TGI (HOP-18 NSCLC)?
**A.** > 100 µM

**Q.** And the TGI (KM20L2 colon)?
**A.** > 100 µM

**Q.** And the TGI (LXFL 529 NSCLC)?
**A.** > 100 µM

**Q.** And the TGI (M19-MEL melanoma)?
**A.** > 100 µM

**Q.** What about the TGI (RXF-631 renal) of the same compound?
**A.** > 100 µM

**Q.** And the TGI (SNB-78 CNS)?
**A.** > 100 µM

**Q.** With CCOC(=O)C(OCC1CC=CCC1)Sc1ccccc1 (stereo not drawn) as the compound, how does the TGI (DLD-1 colon) read?
**A.** > 100 µM

**Q.** And the TGI (DMS 114 small cell lung)?
**A.** > 100 µM

**Q.** What about the TGI (DMS 273 small cell lung) of the same compound?
**A.** > 100 µM

**Q.** What about the TGI (HOP-18 NSCLC) of the same compound?
**A.** > 100 µM

**Q.** And the TGI (KM20L2 colon)?
**A.** > 100 µM

**Q.** And the TGI (LXFL 529 NSCLC)?
**A.** > 100 µM

**Q.** What about the TGI (M19-MEL melanoma) of the same compound?
**A.** > 100 µM

**Q.** And the TGI (SNB-78 CNS)?
**A.** > 100 µM

**Q.** Which results are given for COc1ccc2nc(-c3ccc(OCc4ccccc4)cc3)ccc2c1?
**A.** TGI (DLD-1 colon): > 100 µM; TGI (DMS 114 small cell lung): > 100 µM; TGI (HOP-18 NSCLC): > 100 µM; TGI (KM20L2 colon): > 100 µM; TGI (LXFL 529 NSCLC): > 100 µM; TGI (M19-MEL melanoma): > 100 µM; TGI (SNB-78 CNS): > 100 µM; TGI (XF 498 CNS): > 100 µM
